Assay results published in paper PMC5945515, “Measuring glucocorticoid receptor expression in vivo with PET” (Oncotarget, 2018).

How the values were obtained:
[1] = Log P determination (octanol:water); assay type: physicochemical; settings: octanol:water 1:1 v/v
Protocol: To a microcentrifuge tube containing 1 mL of octanol:water (1:1 v/v) was added 50 μL of ^18F-GR02 (total activity = 37 MBq). The solution was vortexed vigorously for 30 sec, and the biphasic layers were allowed to separate. The layers were manually pipetted into new microcentrifuge tubes, and the activity of each fraction was read with a dose calibrator. The water fraction contained 1.7 MBq, and the octanol fraction contained 35.3 MBq.

mouse GR = target: T1, mouse GR (Mus musculus, UniProt P06537); assay: Competition binding assay on cells, mouse GR; settings: GL261 cells, displacing 3H-dexamethasone; read-out: KD msGR
T1 construct: endogenous in cells; host or cells: GL261
T1 sequence (P06537 1-792): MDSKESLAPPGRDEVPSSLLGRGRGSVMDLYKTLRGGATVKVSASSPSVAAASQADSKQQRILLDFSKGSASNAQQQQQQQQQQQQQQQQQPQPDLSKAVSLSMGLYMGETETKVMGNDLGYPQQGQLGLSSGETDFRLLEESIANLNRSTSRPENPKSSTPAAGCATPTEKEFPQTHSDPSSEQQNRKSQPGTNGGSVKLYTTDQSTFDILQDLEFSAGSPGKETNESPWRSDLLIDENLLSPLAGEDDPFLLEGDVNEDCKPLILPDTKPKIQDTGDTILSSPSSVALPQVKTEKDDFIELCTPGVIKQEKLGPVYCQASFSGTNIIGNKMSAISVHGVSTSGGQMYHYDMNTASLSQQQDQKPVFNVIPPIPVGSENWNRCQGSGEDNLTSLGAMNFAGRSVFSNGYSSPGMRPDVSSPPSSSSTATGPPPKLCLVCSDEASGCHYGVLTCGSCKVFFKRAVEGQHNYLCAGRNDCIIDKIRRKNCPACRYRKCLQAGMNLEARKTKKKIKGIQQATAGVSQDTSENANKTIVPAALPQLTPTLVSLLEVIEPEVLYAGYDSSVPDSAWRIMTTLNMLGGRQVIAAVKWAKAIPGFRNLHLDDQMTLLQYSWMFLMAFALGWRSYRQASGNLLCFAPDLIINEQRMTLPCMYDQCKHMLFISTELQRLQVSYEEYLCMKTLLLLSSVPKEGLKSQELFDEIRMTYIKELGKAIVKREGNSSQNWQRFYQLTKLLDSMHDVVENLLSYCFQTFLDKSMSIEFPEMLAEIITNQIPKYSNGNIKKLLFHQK
Protocol: (§1) The KD for subfamily 3 group C nuclear hormone receptors was determined on cells by displacing ^3H-steroidal agonists for the respective receptor. […].
(§2) The cold ligands and ^3H-steroids were co-incubated on cells in PBS at room temperature for one hour. Following incubation, the cells were washed twice with ice cold PBS and the unbound activity was retained for analysis. The cells were lysed with 1 mL of 1 M NaOH and collected. Bound and unbound fractions were counted in a liquid scintillation counter and expressed as a percentage of the total activity added per equal relative number of cells. […]. The specific binding component was plotted against the log of the competing ligand and curve fit using a non-linear regression algorithm with PRISM software.

rat GR = target: T2, rat GR (Rattus norvegicus, UniProt P06536); assay: Competition binding assay on cells, rat GR; settings: 9L cells, displacing 3H-dexamethasone; read-out: KD rtGR
T2 construct: endogenous in cells; host or cells: 9L
T2 sequence (P06536 1-795): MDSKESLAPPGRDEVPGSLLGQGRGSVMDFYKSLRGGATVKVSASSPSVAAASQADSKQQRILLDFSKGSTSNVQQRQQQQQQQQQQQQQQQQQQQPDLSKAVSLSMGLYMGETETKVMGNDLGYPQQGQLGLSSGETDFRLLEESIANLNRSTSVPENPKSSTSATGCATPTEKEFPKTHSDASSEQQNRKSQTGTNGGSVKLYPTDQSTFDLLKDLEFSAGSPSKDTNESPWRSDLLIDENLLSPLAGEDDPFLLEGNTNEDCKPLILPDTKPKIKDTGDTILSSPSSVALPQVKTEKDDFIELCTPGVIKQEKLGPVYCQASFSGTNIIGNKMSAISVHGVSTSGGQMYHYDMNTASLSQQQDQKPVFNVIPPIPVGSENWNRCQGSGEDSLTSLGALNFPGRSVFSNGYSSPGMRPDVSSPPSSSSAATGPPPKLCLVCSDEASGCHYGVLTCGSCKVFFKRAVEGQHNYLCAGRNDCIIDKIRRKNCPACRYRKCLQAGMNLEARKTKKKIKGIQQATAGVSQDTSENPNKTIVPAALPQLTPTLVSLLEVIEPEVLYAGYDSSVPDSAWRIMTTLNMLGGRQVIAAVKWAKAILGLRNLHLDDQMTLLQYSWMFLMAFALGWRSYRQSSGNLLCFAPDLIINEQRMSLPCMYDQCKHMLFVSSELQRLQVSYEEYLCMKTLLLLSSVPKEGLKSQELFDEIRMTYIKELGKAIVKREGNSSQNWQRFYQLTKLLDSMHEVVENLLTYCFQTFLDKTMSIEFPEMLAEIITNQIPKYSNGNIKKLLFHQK
Protocol: as §1, §2

C[C@]12C=CC(=O)C=C1CCC1C2[C@@H](O)C[C@@]2(C)C1CC[C@]2(O)C(=O)CNC(=O)c1ccc(F)cc1 (stereo partly drawn) [GR02]
logP [1]: 1.33
Kd (mouse GR): 6.71 nM
Kd (rat GR): 6.18 nM
